In patent US5932580A, “PDGF receptor kinase inhibitory compounds their preparation and compositions” (priority 1997, dated 1999):
Read-outs that look alike come from different tables or passages of the source.

Key:
SRC kinase = molecular target: T1, SRC kinase (Gallus gallus, UniProt P00523, Y527F); assay: Src kinase activity assay (immunoprecipitate from src-transformed NIH 3T3 cells); format: biochemical, chicken
T1 construct: expressed in transfected cells; host or cells: NIH 3T3, stably transfected (gift of S. Courtneidge, Heidelberg)
Experimental: Src kinase activity assay: src-transformed NIH 3T3 cells were grown in 24-well plates to confluency; rinsed twice with a solution containing 20 mM Tris, 0.1 mM sodium-o-vanadate, and 150 mM NaCl (pH 7.5); and lysed in 100 μl/well of lysis buffer containing 20 mM Tris (pH 8.0), 150 mM NaCl, 1% Nonidet P-40, 2.5 mM EDTA, 10 mM NaF, 1% trasylol, and 20 μm leupeptin. The lysate was clarified by centrifugation and subjected to immunoprecipitation with the anti-Src monoclonal antibody MAb 327 (Oncogene Science; 0.5 μg antibody/80 μg protein) for 1 hour at 4° C. Then, goat anti-mouse IgG (Sigma; 0.2 μg per 0.5 μg monoclonal antibody 327) was added and incubation was continued for 30 mi followed by another 40 min of incubation with 10 μl of protein A-Sepharose Cl-4B (Pharmacia). The immunoprecipitates were washed five times with the lysis buffer and twice with kinase buffer containing 40 mM Hepes (pH 7.4), 0.5 mM dithiothreitol, 5 mM MnCl2, and 0.1 mM sodium-o-vanadate. The immunoprecipitates were suspended in kinase buffer and aliquots corresponding to 40 μg of cell lysate protein were preincubated with or without tyrphostin for 15 min at 30° C. Then, the kinase reaction was performed in the presence of 2 μg of acid-treated enolase and 10 μCi of [γ-^32 P]ATP (2 μM) in a final volume of 30 μl. The reaction was terminated by addition of SDS-PAGE sample buffer (6% SDS, 30% β-mercaptoetlhanol, 40% glycerol, and 0.5 mg/ml bromophenol blue) and the incorporation of radioactivity in the enolase was analyzed by SDS-PAGE and autoradiography as well as Phosphor-Imager quantification.

EGFR = molecular target: T2, EGFR (Mus musculus, UniProt Q01279); assay: EGFR autophosphorylation, isolated membranes or intact Swiss 3T3 cells; format: biochemical; conditions: read-out: IC50 (50% inhibition of phosphorylation) EGFR
T2 construct: Membranes were prepared from confluent cultures of Swiss 3T3 cells; endogenous in cells; host or cells: Swiss 3T3 (obtained from E. Rozengurt, London)
T2 sequence (Q01279 25-1210): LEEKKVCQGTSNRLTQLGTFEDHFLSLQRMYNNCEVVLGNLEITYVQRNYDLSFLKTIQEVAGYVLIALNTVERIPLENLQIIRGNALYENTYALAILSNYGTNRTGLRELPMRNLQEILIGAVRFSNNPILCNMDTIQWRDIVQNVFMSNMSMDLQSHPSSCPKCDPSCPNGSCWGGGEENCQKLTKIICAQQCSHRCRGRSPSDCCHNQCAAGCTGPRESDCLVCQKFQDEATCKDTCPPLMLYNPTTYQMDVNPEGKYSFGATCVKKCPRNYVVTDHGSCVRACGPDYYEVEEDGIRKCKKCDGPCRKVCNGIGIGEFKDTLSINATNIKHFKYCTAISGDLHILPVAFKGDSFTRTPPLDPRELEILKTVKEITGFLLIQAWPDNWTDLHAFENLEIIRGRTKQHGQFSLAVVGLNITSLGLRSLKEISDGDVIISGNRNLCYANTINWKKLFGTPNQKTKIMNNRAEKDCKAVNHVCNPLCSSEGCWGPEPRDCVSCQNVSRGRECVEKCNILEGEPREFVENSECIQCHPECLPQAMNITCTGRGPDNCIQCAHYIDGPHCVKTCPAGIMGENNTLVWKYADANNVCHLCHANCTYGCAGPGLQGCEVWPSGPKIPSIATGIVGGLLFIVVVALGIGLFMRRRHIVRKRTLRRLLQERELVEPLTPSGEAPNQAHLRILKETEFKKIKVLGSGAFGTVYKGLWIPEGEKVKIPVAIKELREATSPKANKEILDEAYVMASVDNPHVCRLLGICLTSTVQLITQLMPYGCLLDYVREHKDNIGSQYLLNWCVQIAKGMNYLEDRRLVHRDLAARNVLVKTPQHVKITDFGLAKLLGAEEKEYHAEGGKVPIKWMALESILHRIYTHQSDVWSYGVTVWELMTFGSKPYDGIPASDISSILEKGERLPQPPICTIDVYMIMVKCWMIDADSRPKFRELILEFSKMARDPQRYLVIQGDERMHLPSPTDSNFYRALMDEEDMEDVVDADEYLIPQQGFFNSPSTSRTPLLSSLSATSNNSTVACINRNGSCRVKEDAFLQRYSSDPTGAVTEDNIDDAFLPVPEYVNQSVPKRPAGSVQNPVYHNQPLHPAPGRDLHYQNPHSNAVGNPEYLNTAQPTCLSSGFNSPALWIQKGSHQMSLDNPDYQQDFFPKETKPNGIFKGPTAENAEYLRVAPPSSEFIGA
Experimental: Membrane autophosphorylation assays: Membranes were prepared from confluent cultures of Swiss 3T3 cells as described [22]. For measuring receptor autophosphorylation, 10 μg membrane protein per assay were incubated for 20 min on ice in the presence of 1.2 μg/ml EGF or 2 μg/ml PDGF, or both; 50 mM Hepes (pH 7.5); and 3 mm MnCl2 (final concentrations) in a volume of 45 μl. In order to test the effects and determine the IC50 value of various tyrphostins, these were added in a volume of 0.5 μl (in DMSO; final concentration, 0.5%) 15 min before addition of the growth factors, in a range of concentrations. […] For quantification of radioactivity in electrophoresis gels, a Phospho-Imager (Molecular Dynamics, Fuji, or Bio-Rad) was used according to the instructions of the manufacturers. […]

PDGF β-receptor = molecular target: T3, PDGF β-receptor (Sus scrofa, UniProt F1RL75); assay: PDGF induced PDGFR autophosphorylation in intact SMC cells; format: cell-based; conditions: porcine arterial SMC
T3 construct: PDGF-BB stimulated; immunoprecipitated with PDGF beta-receptor specific antiserum R3
T3 sequence (F1RL75 109-1181): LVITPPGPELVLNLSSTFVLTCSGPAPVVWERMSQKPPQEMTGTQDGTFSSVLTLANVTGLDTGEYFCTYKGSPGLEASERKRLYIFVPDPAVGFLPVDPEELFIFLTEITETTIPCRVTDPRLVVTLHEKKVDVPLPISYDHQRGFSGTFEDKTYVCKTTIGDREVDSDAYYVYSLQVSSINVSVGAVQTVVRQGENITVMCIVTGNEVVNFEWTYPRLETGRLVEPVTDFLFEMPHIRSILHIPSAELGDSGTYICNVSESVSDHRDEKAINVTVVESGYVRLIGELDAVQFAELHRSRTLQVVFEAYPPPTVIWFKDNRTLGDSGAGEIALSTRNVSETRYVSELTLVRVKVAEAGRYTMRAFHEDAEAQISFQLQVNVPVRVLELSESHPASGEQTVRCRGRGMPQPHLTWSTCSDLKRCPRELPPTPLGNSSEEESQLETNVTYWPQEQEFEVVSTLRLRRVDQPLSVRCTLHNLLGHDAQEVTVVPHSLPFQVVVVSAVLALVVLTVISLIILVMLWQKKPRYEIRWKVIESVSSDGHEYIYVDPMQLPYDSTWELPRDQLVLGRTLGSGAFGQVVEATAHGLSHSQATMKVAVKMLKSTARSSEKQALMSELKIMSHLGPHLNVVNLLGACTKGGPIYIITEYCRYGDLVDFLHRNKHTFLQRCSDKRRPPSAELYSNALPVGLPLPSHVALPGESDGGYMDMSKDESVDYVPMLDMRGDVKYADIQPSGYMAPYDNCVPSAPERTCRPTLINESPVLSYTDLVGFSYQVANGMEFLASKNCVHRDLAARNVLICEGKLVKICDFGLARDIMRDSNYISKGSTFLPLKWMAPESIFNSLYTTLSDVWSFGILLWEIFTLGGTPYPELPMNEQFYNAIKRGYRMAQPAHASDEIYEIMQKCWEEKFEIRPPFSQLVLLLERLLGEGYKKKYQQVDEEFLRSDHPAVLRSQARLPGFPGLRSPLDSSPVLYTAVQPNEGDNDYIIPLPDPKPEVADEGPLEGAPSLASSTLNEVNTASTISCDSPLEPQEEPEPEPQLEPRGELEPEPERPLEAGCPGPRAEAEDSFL
Experimental: Effect of tyrphostins on PDGF induced PDGFR autophosphorylation in intact SMC cells: Subconfluent porcine arterial smooth muscle cells, cultivated in Dulbecco's modified Eagle's medium (DMEM) supplemented with 15% fetal calf serum (FCS), were synchronized for 20 hours in a medium containing 2% FCS. […] After stimulation, the cells were solubilized in Nonidet P-40 (1%) containing lysis buffer.
The analysis of PDGF p-receptor phosphorylation was performed as follows. Cell lysates were subjected to immunoprecipitation using the PDGF β-receptor specific antiserum R3 [5]. The percipitates were subjected to polyacrylamide (7.5%) gel electrophoresis in presence of sodium deducyl sulfate (SDS-PAGE) and were thereafter blotted onto a nitrocellulose membrane (Hybond C-EXTRA, Amersham). Phosphorylated proteins were detected by immunoblotting using the horseradish-peroxidase conjugated phosphotyrosine antibody RC20H (Transduction Laboratories), followed by chemoluminescence-based detection (ECL, Amersham) and autoradiography.
Detection of receptor proteins was performed as follows. Cell lysates were subjected to immunoprecipitation using the PDGF β-receptor specific antiserum R3 [5], as described above, and the percipitates washed three times and thereafter subjected to SDS-PAGE (7.5%) and blotting onto a nitrocellulose membrane (Hybond C-EXTRA, Amersham). Receptor proteins were detected by immunoblotting using the horseradish-peroxidase conjugated donkey anti-rabbit antibody (Amersham), followed by chemoluminescence-based detection (ECL, Amersham) and autoradiography.

PDGFR = PDGFR autophosphorylation, isolated membranes or intact Swiss 3T3 cells; format: biochemical; conditions: read-out: IC50 (50% inhibition of phosphorylation) PDGFR
Experimental: Assay of receptor autophosphorylation in intact 3T3 cells: Confluent Swiss 3T3 cells in 24-well plates (Nunc) were incubated for 20-24 hours in serum-free DMEM. Subsequently, tyrphostins were added at concentrations ranging from 0 to 100 μM (final DMSO concentration, 0.5%) and the incubation was continued for 6-8 hours. The cells were then stimulated with 100 ng/ml PDGF-BB for 5 min at room temperature or 600 ng/ml EGF for 2.5 min on ice. The growth factor treatment was terminated by washing twice with ice-cold PBS and the cells were scraped off the wells in 60 μl lysis buffer containing 20 mM Hepes (pH 7.4), 150 mM NaCl, 1% Triton X-100, 10 mM sodium pyrophosphate, 50 mM NaF, 2 mM sodium-o-vanadate, 20 μm zinc acetate, 10 nM EDTA, 2 mM [ethylenebis(oxyethilenenitrilo)] tetraacetic acid, 1 mM phenylmethylsulfonyl fluoride, and 5 μg/ml leupeptin.
The cell lysates were clarified by centrifugation (cooled microfuge, 17,000 rpm, 15 min) and analyzed by SDS-PAGE (6.5% gels) and immunoblotting with anti-phosphotyrosine antibodies (either PY 20, ICN, and subsequently a peroxidase-coupled secondary antibody, or RC20-peroxidase conjugate, Affinity, Nottingham, United Kingdom). The blots were developed with a chemiluminescence detection system (Western Light, Tropix, or ECL, Amersham). In some experiments PDGF receptors were immunoprecipitated with PDGF-R3 or DIG-1 antibodies as described prior to the analysis by immunoblotting with anti-phosphotyrosine antibodies.
Membrane autophosphorylation assays: Membranes were prepared from confluent cultures of Swiss 3T3 cells as described. For measuring receptor autophosphorylation, 10 μg membrane protein per assay were incubated for 20 min on ice in the presence of 1.2 μg/ml EGF or 2 μg/ml PDGF, or both; 50 mM Hepes (pH 7.5); and 3 mm MnCl2 (final concentrations) in a volume of 45 μl. […] For quantification of radioactivity in electrophoresis gels, a Phospho-Imager (Molecular Dynamics, Fuji, or Bio-Rad) was used according to the instructions of the manufacturers. […]

[1] = tested on: porcine aortic smooth muscle cells (SMC); assay: Inhibition of cell proliferation and recovery, porcine SMC; format: cell-based; conditions: for inhibition at 10 µM: Sus scrofa
Experimental: Smooth muscle cells (SMC) were obtained under aseptic conditions from porcine abdominal aortas, and human internal mammary arteries (IMA). Specimens from the operating room were transferred on ice to the tissue culture room. Each artery was cut open and the endothelial surface mechanically scraped. […] The tissue fragments were then placed in an incubator at 37° C. under 9% CO2 atmosphere until SMC outgrowth was detected (typically within 3-7 days). […] For experiments testing the effect of tyrphostins on growth inhibition and recovery (see below), SMC from passages 1-3 were replated in 15 mm wells pretreated with 3 μg/cm^2 fibronectin (Biological Industries, Kibbutz Beit Haemek, Israel) at 15,000 cells/well.
Inhibition of cell proliferation and recovery: Monolayer cell growth inhibition and recovery experiments were repeated 3 or 4 times. Each experiment was performed in triplicate. […] Cultures were treated with a tyrphostin (10 μM) dissolved in 0.1% DMSO on days 1 and 3. On day 6, cultures were washed and the cells allowed to recover. Typically cells were counted on days 3 and 5 for inhibition, and on days 7, 10 and 15 for recovery, other schedules were also employed as reported below.

Cc1cc2ncc(-c3cccs3)nc2cc1C [AG1990]
IC50 (SRC kinase): 20 µM | IC50 (EGFR): > 30 µM | level of PDGF β-receptor protein present in the cells (PDGF β-receptor): without affecting the level | inhibition of PDGF-BB induced PDGF β-receptor tyrosine-phosphorylation (PDGF β-receptor; tyrphostin 10 μM, 60 min preincubation, PDGF-BB 100 ng/ml): completely inhibited | IC50 (PDGFR): 1 µM | inhibition at 10 µM ([1]; 120 h, by day 5 (day given for AG1295 and AG1992), read-out: reduction in SMC count / inhibition of SMC growth over control): 50% | inhibition at 10 µM ([1]; Table 2, read-out: mean reduction in SMC count compared to control cells (maximal inhibition in SMC growth)): 50% | reversibility of the inhibitory effect / recovery of SMC growth after washout ([1]; porcine SMC, cultures washed, cells allowed to recover): completely reversible
